pIC50: −log10 of the molar value. Activity calls are given as the source filed them. The calls are words filed in the database; no cut-off is given here.
Columns and labels:
[1] = Antiproliferative activity against human leukemia cells; assay type: functional, cell-based; conditions: Leukemia cell
MCF7 = experiment: Antiproliferative activity against human MCF7 cells; assay type: functional, cell-based
[2] = Antiproliferative activity against human lung cancer cells; assay type: functional, cell-based; conditions: Cancer cell lines
SNU-638 = experiment: Antiproliferative activity against human SNU638 cells; assay type: functional, cell-based
[3] = Anticancer activity against 1 x 10^5 cells mouse NSF202 cells assessed as decrease in viable cells at 1 ug/ml measured after 2 days by trypan blue exclusion method; assay type: functional
Mus musculus [4] = species: Mus musculus; experiment: Anticancer activity against 2 x 10^5 cells mouse NSF202 cells assessed as cell growth inhibition at 1.02 uM measured after 2 days by trypan blue exclusion method; assay type: functional, cell-based
Mus musculus [5] = species: Mus musculus; experiment: Anticancer activity against 1 x 10^5 cells mouse NSF202 cells assessed as cell growth inhibition at 1.02 uM measured after 2 days by trypan blue exclusion method; assay type: functional, cell-based

| Compound | pIC50 [1] | pIC50 (MCF7) | pIC50 [2] | pIC50 (SNU-638) | Activity [3] [%] | inhibition (Mus musculus [4]) | inhibition (Mus musculus [5]) |
| --- | --- | --- | --- | --- | --- | --- | --- |
| O=Nc1c(-c2c(O)[nH]c3ccc([N+](=O)[O-])cc23)[nH]c2ccccc12 | 5.04 | 5.85 | 5.27 | 5.92 |  |  |  |
| O=C1C(c2c[nH]c3ccccc23)=Nc2ccccc21 [INDOXYL RED] |  |  |  |  | 40 | Active | Active |

From ChEMBL document CHEMBL2311338, “On the preparation of indoxyl red from indican and some new characteristics” (Bioorg Med Chem Lett, 2013)
